Measurements taken from paper PMC4381330, “Identification of a novel selective agonist of PPARγ with no promotion of adipogenesis and less inhibition of osteoblastogenesis” (Scientific Reports, 2015).

Columns and labels:
[1] = biological target: T1, human PPARγ-LBD (coactivator peptide recruitment) (Homo sapiens, UniProt P37231); assay: LanthaScreen TR-FRET coactivator peptide recruitment assay; type: biochemical
T1 construct: incubated with GST-fused human PPARγ-LBD, terbium-labeled anti-GST antibody; purchased Invitrogen
T1 sequence (P37231 238-503 limits assumed): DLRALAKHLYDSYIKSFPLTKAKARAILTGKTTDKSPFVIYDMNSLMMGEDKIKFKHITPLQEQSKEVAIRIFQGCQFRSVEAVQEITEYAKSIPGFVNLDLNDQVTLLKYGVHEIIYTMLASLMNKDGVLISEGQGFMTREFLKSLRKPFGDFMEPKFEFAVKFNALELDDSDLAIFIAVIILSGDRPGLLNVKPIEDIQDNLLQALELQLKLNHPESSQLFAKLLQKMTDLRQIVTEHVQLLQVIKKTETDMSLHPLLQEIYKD
Description: PPARγ coregulator peptide interaction assay was performed by the LanthaScreen TR-FRET PPARγ Coactivator Assay Kit (Invitrogen) according to the manufacturer's instructions. Serial concentrations of compounds were incubated with GST-fused human PPARγ-LBD, terbium-labeled anti-GST antibody and fluorescein-labeled peptide for 4 h. The measurement and data calculation were as above.

human PPARγ LBD = biological target: T2, human PPARγ LBD (Homo sapiens, UniProt P37231); assay: LanthaScreen TR-FRET PPARγ competitive binding assay; details: purified human PPARγ LBD
T2 construct: incubated with GST-fused human PPARγ-LBD, terbium-labeled anti-GST antibody; purchased Invitrogen
T2 sequence (P37231 238-503 limits assumed): T1 sequence (P37231 238-503 limits assumed)
Description: The LanthaScreen time-resolved fluorescence resonance energy transfer (TR-FRET) PPARγ competitive binding assay (Invitrogen) was performed according to the manufacturer's protocol. […] The FRET signal was measured by excitation at 340 nm and emission at 520 nm for fluorescein and 495 nm for terbium. In this assay, test compounds' binding to PPARγ LBD competed with Pan-PPAR Green and replaced it, resulting in a decrease of signal. The ability of binding to the PPARγ-LBD was measured by the decrease of the 520 nm/495 nm ratio. Graphs were plotted as fold changes of the FRET signal for compounds over the DMSO-only control.

[2] = test system: osteoblast marker genes in MC3T3-E1 cells; assay: Expression of osteoblast marker genes in MC3T3-E1 cells (qPCR); type: cell-based
Description: MC3T3-E1 cells were cultured in α-MEM to confluency in 24-well plates and then cultured in differentiation medium (α-MEM supplemented with 200 μM ascorbic acid and 10 mM β-glycerophosphate) for 7, 14, and 21 days, which was replaced every 3 days. The cells were treated with DMSO, rosiglitazone, or F12016 at the start of differentiation. At day 8, 15 and 22, total RNA was isolated, and real-time PCR was performed as described below.
(§1) Total RNA was extracted using TRIzol reagent (Invitrogen). First-strand cDNA was synthesized from the total RNA using a reverse transcriptional kit (TransGen). Quantitative PCR with SYBR Green (Roche Diagnostics, Lewes, UK) was performed on a Stratagene MX3000P real-time PCR system (Agilent). Melting curves were obtained, and the specificity of PCR products was checked on agarose gels. Relative mRNA expression was determined by the ΔΔCt method and normalized to GAPDH mRNA levels.

[3] = test system: PPARγ target genes in differentiating 3T3-L1 cells; assay: Expression of adipogenesis-related and PPARγ-responsive genes in differentiating 3T3-L1 adipocytes (qPCR); type: cell-based, mouse
Description: (§2) 3T3-L1 preadipocytes were grown to confluency in DMEM containing 10% CS. At 2 days post-confluency, the cells were stimulated with differentiation medium (DMEM containing 10% FBS, 10 μg/mL insulin, 1 μM dexamethasone, and 0.5 mM IBMX) for 48 h. Then, the cells were exposed in post-differentiation-maintaining medium (DMEM containing 10% FBS and 10 μg/mL insulin) for a further 48 h, which was replaced with expansion medium (DMEM containing 10% FBS) every 2 days after then. Compounds were added to the post-differentiation and expansion medium. At day 4, the cells were harvested for RNA preparation. At Day 8, the cells were fixed with 10% formaldehyde and stained with Oil red O solution. After washing with water, photos were taken. Solubilized dye was quantified at 550 nm. In addition, total triglyceride of the cells was measured by a total TG measurement kit (Applygene, China). Experiments were performed at least three times.
as §1

[4] = biological target: T3, CDK5-mediated phosphorylation of PPARγ at Ser273 (Homo sapiens, UniProt P37231); assay: In vitro CDK5 assay of the PPARγ LBD (western blot); type: biochemical; details: to a similar extent as rosiglitazone
T3 construct: 0.5 μg purified PPARγ-LBD protein was incubated with 50 ng CDK5/p25 kinase (Millipore); Millipore (CDK5/p25 only)
T3 sequence (P37231 238-503 limits assumed): T1 sequence (P37231 238-503 limits assumed)
Description: The in vitro CDK assay was performed as described previously. Briefly, 0.5 μg purified PPARγ-LBD protein was incubated with 50 ng CDK5/p25 kinase (Millipore) in CDK assay buffer (Cell Signaling Technology, Danvers, MA, USA), followed by addition of 50 μM ATP and incubation for 30 min at room temperature. PPARγ-LBD was pre-incubated with test compounds for 30 min before performing the reaction. Phosphorylation of PPARγ Ser273 was analyzed by western blotting with an anti-CDK substrate antibody to detect phosphor-serine in the consensus motif for CDK substrate proteins (K/R-S-P-K/R) (Cell Signaling Technology).

3T3-L1 preadipocytes = assay: Adipogenic differentiation of 3T3-L1 preadipocytes (Oil red O, triglyceride content); type: cell-based, mouse
Description: as §2

L02 normal hepatocytes = assay: 2-NBDG glucose uptake assay in L02 cells; type: cell-based; details: 24 h, absence or presence of insulin
Description: Glucose uptake activity was determined by measuring the uptake of 2-NBDG (2-(N-(7-nitrobenz-2-oxa-1, 3-diazol-4-yl)amino)-2-deoxyglucose, Invitrogen). […] Glucose uptake was initiated by addition of 1 mM 2-NBDG diluted in PBS. After 1 h, it was terminated by removing the contents of the wells and washing the cells with PBS. The glucose uptake was quantified by measuring the fluorescence intensity of cell lysates (prepared with neutral lysis buffer) at 485 nm excitation and 528 nm emission, and normalized to the corresponding protein content.

diabetic KKAy mice = assay: Diabetic KKAy mice, 21 days treatment (fasting blood glucose, OGTT, ITT, body weight)
Description: Fasting blood glucose was measured with Onetoch Ultra Teststrip (Johnson & Johnson) at day 0, 3, 7, 14, 21, and body weight were monitored during these days.
After 14 days of treatment, oral glucose tolerance test (OGTT) was performed. Mice were fasted for 6 h with free access to water. 2 g/kg of glucose was given by gavage and blood glucose was measured at 0, 30, 60, 90, and 120 min.
After 21 days of feeding, insulin tolerance test (ITT) was carried out. Mice were fasted for 4 h before being injected 1 U/kg of recombinant human insulin (Novo Nordisk) subcutaneously, and blood glucose was measured at 0, 40, 90, and 120 min after insulin injection.

## 2-[2-(1, 2-dimethyl-1H-indol-3-yl)-2-oxo-acetylamino]-benzamide [Compound F12016]
[1]; cofactor peptide CBP
  EC50/IC50 CBP: 0.349 µM
[1]; cofactor peptide CBP, maximum recruitment relative to rosiglitazone
  Efficacy CBP: 10%
[1]; cofactor peptide PGC-1α
  EC50/IC50 PGC-1α: 21.81 µM
[1]; cofactor peptide PGC-1α, maximum recruitment relative to rosiglitazone
  Efficacy PGC-1α: 57%
[1]; cofactor peptide RAP250
  EC50/IC50 RAP250: 5.765 µM
[1]; cofactor peptide RAP250, maximum recruitment relative to rosiglitazone
  Efficacy RAP250: 25%
[1]; cofactor peptide SRC1
  EC50/IC50 SRC1: 17.65 µM
[1]; cofactor peptide SRC1, maximum recruitment relative to rosiglitazone
  Efficacy SRC1: 26%
[1]; cofactor peptide SRC3
  EC50/IC50 SRC3: 15.06 µM
[1]; cofactor peptide SRC3, maximum recruitment relative to rosiglitazone
  Efficacy SRC3: 23%
[1]; cofactor peptide TIF2
  EC50/IC50 TIF2: 6.437 µM
[1]; cofactor peptide TIF2, maximum recruitment relative to rosiglitazone
  Efficacy TIF2: 17%
[1]; cofactor peptide TRAP220
  EC50/IC50 TRAP220: 5.132 µM
[1]; cofactor peptide TRAP220, maximum recruitment relative to rosiglitazone
  Efficacy TRAP220: 17%
[1]; span over the three cofactors
  recruitment of SRC 1 and 3 and RAP250 to PPARγ: 22–27 % of rosiglitazone
Human PPARγ LBD
  IC50: 36.3 µM
  Ki: 13 µM
[2]; 7 days
  expression of Alp and Col1: increased expressions of Alp and Col1
[2]; 7 days, rosiglitazone 1 μM, compared with control
  expression of RANKL: not significantly changed
[2]; Ibsp 14 days, Bglap 21 days
  expression of Ibsp and Bglap: did not show any significant reductions
[3]
  AdipQ mRNA expression: increased AdipQ mRNA expression
  mRNA levels of 11β-HSD1: similarly decreased the mRNA levels
  transcription of Pdk4: decreased transcription
[3]; both compounds to a similar extent
  expression of fatty acid synthase (Fasn): upregulated expression
[3]; compared with rosiglitazone
  expression of adipogenesis-related genes (CEBP/α, PEPCK, FABP4, CD36, Gyk, Elvol3, Cox7a1): induced much less expression
  induction of lipoprotein lipase (LPL): less than that induced by rosiglitazone
[4]
  CDK5-mediated phosphorylation of PPARγ: effectively blocked CDK5-mediated phosphorylation of PPARγ
3T3-L1 preadipocytes; 6 days of stimulation
  intracellular triglyceride (TG) content: significantly reduced TG accumulation compared with rosiglitazone
3T3-L1 preadipocytes; F12016 30 μM vs 10 μM
  TG content of differentiating adipocytes at 30 μM compared with 10 μM: significantly less than that of 10 μM
3T3-L1 preadipocytes; RGZ 0.1, 1, 10 μM, F12016 1, 10, 30 μM
  lipid accumulation / intracellular lipid droplets (Oil red O staining): significantly reduced potency to form intracellular lipid droplets
3T3-L1 preadipocytes; supplementary Figure 2
  lipid droplet size, F12016 vs rosiglitazone: no significant difference
L02 normal hepatocytes
  insulin sensitivity and glucose transport (2-NBDG): significantly increased insulin sensitivity and promoted glucose transport
Diabetic KKAy mice; F12016 75 mg/kg by gavage once daily, day 3, 7, 14 and 21, vs vehicle
  fasting blood glucose: significantly reduced fasting blood glucose
Diabetic KKAy mice; after 14 days of treatment, 2 g/kg glucose, F12016 75 mg/kg
  glucose tolerance (OGTT): significantly improved glucose tolerance
Diabetic KKAy mice; after 21 days, insulin 1 IU/kg, F12016 75 mg/kg, rosiglitazone 5 mg/kg
  blood glucose after insulin injection (ITT): significantly reduced blood glucose
Diabetic KKAy mice; after 21 days, F12016 75 mg/kg, rosiglitazone 5 mg/kg, vs vehicle
  average body weight: much lower than that of vehicle controls
